# Measured values: the supplement of paper PMC10307832
# Compound: C(C(=O)C(=O)O)Br [Bromopyruvate] + Cc1cc(Nc2cc(N3CCN(C)CC3)nc(Sc3ccc(NC(=O)C4CC4)cc3)n2)n[nH]1 [Tozasertib] (partner 0.1 µM)
# Test: relative viability (nuclei count vs DMSO), 5 days (fraction); higher = more cells survive
# Conditions: first compound 100 µM
# How it was run: (§1)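 The day after seeding in 1536-well plates, lung cancer cell lines were treated by pin tool with a single drug, or with a fixed anchor-drug dose together with five library-drug doses (not always all listed) in √10 steps. After 5 days, a combined fix-and-stain solution (final 0.05% Triton X-100, 1% formaldehyde, 1 ug/ml Hoechst) was added. Nuclei counted on 4× images gave relative viability as treated counts over vehicle counts, reported as the median of duplicate plates.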
row,Cell Line,relative viability
1,A-427,0.151
2,NCI-H460,0.335
3,NCI-H727,0.535
4,NCI-H1734,0.216
5,NCI-H2405,0.785
6,NCI-H1395,0.751
7,201T,0.982
8,NCI-H1915,0.392
9,HCC-827,0.435
10,LXF-289,0.172
11,NCI-H2347,0.609
12,NCI-H650,0.698
13,CAL-12T,0.308
14,NCI-H1651,0.652
15,EPLC-272H,0.215
16,NCI-H23,0.105

# Compound: C(C(=O)C(=O)O)Br [Bromopyruvate] + NC(=O)Nc1cc(-c2cccc(F)c2)sc1C(=O)N[C@H]1CCCNC1 [AZD7762] (partner 0.2 µM)
# Test: as above
# Conditions: first compound 1 µM
# How it was run: as §1
row,Cell Line,relative viability
1,NCI-H2126,0.989
2,H3255,0.907
3,LOU-NH91,0.801
4,NCI-H2170,0.923
5,NCI-H3122,1.03
6,HOP-62,0.498
7,LU99A,0.318
8,BEN,0.806
9,HARA,1.98
10,HCC-78,0.481
11,NCI-H441,1.01
12,LCLC-97TM1,0.224
13,A-427,0.782
14,NCI-H460,0.676
15,NCI-H727,0.664
16,NCI-H1734,0.536
17,NCI-H2405,0.998
18,NCI-H1395,0.447
19,201T,0.638
20,NCI-H1915,0.699
21,HCC-827,0.175
22,LXF-289,1.07
23,NCI-H2347,0.751
24,NCI-H650,0.931
25,CAL-12T,0.633
26,NCI-H1651,0.441
27,EPLC-272H,0.236
28,NCI-H23,0.27

# Same assay, conditions: first compound 3.162 µM
row,Cell Line,relative viability
1,NCI-H2126,1.04
2,H3255,0.86
3,LOU-NH91,0.755
4,NCI-H2170,0.989
5,NCI-H3122,0.967
6,HOP-62,0.573
7,LU99A,0.364
8,BEN,0.662
9,HARA,0.393
10,HCC-78,0.624
11,NCI-H441,1.18
12,LCLC-97TM1,0.375
13,A-427,0.747
14,NCI-H460,0.698
15,NCI-H727,0.582
16,NCI-H1734,0.7
17,NCI-H2405,0.888
18,NCI-H1395,0.398
19,201T,0.715
20,NCI-H1915,0.681
21,HCC-827,0.195
22,LXF-289,1.12
23,NCI-H2347,0.79
24,NCI-H650,1.18
25,CAL-12T,0.588
26,NCI-H1651,0.491
27,EPLC-272H,0.205
28,NCI-H23,0.22

# Same assay, conditions: first compound 10 µM
row,Cell Line,relative viability
1,NCI-H2126,1.2
2,H3255,0.964
3,LOU-NH91,0.742
4,NCI-H2170,1.19
5,NCI-H3122,1.04
6,HOP-62,0.473
7,LU99A,0.346
8,BEN,0.743
9,HCC-78,0.565
10,NCI-H441,1.06
11,LCLC-97TM1,0.207
12,A-427,0.883
13,NCI-H460,0.721
14,NCI-H727,0.635
15,NCI-H1734,0.694
16,NCI-H2405,0.887
17,NCI-H1395,0.426
18,201T,0.6
19,NCI-H1915,0.671
20,HCC-827,0.198
21,LXF-289,1.08
22,NCI-H2347,0.754
23,NCI-H650,0.934
24,CAL-12T,0.611
25,NCI-H1651,0.474
26,EPLC-272H,0.346
27,NCI-H23,0.249

# Same assay, conditions: first compound 31.62 µM
row,Cell Line,relative viability
1,NCI-H2126,0.953
2,H3255,0.886
3,LOU-NH91,0.771
4,NCI-H2170,0.893
5,NCI-H3122,0.989
6,HOP-62,0.444
7,LU99A,0.362
8,BEN,0.613
9,HARA,0.298
10,HCC-78,0.549
11,NCI-H441,0.978
12,LCLC-97TM1,0.275
13,A-427,0.66
14,NCI-H460,0.565
15,NCI-H727,0.521
16,NCI-H1734,0.53
17,NCI-H1395,0.414
18,201T,0.594
19,NCI-H1915,0.661
20,HCC-827,0.203
21,LXF-289,1.07
22,NCI-H2347,0.711
23,NCI-H650,1.05
24,CAL-12T,0.568
25,NCI-H1651,0.403
26,EPLC-272H,0.313
27,NCI-H23,0.206

# Same assay, conditions: first compound 100 µM
row,Cell Line,relative viability
1,NCI-H2126,1.04
2,H3255,0.836
3,LOU-NH91,0.837
4,NCI-H2170,0.854
5,NCI-H3122,0.921
6,HOP-62,0.665
7,LU99A,0.341
8,BEN,0.619
9,HARA,0.289
10,HCC-78,0.463
11,NCI-H441,1.14
12,LCLC-97TM1,0.236
13,A-427,0.755
14,NCI-H460,0.621
15,NCI-H727,0.53
16,NCI-H1734,0.544
17,NCI-H2405,0.254
18,NCI-H1395,0.42
19,201T,0.603
20,NCI-H1915,0.689
21,HCC-827,0.19
22,LXF-289,1.26
23,NCI-H2347,0.773
24,NCI-H650,0.945
25,CAL-12T,0.637
26,NCI-H1651,0.4
27,EPLC-272H,0.258
28,NCI-H23,0.251

# Compound: CC(O)(CS(=O)(=O)c1ccc(F)cc1)C(=O)Nc1ccc(C#N)c(C(F)(F)F)c1 [Bicalutamide] + Cc1nc(NC(=O)N2CCC[C@H]2C(N)=O)sc1-c1ccnc(C(C)(C)C(F)(F)F)c1 [Alpelisib] (partner 2 µM)
# Test: as above
# Conditions: first compound 0.08 µM
# How it was run: as §1
row,Cell Line,relative viability
1,NCI-H2126,0.742
2,H3255,0.697
3,LOU-NH91,0.698
4,NCI-H2170,0.834
5,NCI-H3122,0.707
6,HOP-62,1.31
7,LU99A,0.625
8,BEN,0.89
9,HARA,1.01
10,HCC-78,0.288
11,NCI-H441,0.968
12,LCLC-97TM1,0.254
13,A-427,1.07
14,NCI-H460,0.52
15,NCI-H727,0.63
16,NCI-H1734,0.676
17,NCI-H2405,0.789
18,NCI-H1395,0.94
19,201T,1.05
20,NCI-H1915,1.07
21,HCC-827,0.965
22,LXF-289,1.04
23,NCI-H2347,1.09
24,NCI-H650,1.34
25,CAL-12T,1.39
26,NCI-H1651,0.956
27,EPLC-272H,1.05
28,NCI-H23,0.692

# Same assay, conditions: first compound 0.253 µM
row,Cell Line,relative viability
1,NCI-H2126,0.707
2,H3255,0.618
3,LOU-NH91,0.608
4,NCI-H2170,0.767
5,NCI-H3122,0.92
6,HOP-62,0.959
7,LU99A,0.447
8,BEN,0.991
9,HARA,0.767
10,HCC-78,0.327
11,LCLC-97TM1,0.231
12,A-427,1.09
13,NCI-H460,0.429
14,NCI-H727,0.546
15,NCI-H1734,0.59
16,NCI-H2405,0.775
17,NCI-H1395,1.04
18,201T,0.93
19,NCI-H1915,1.12
20,HCC-827,0.79
21,LXF-289,0.952
22,NCI-H2347,1.09
23,NCI-H650,1.04
24,CAL-12T,1.09
25,NCI-H1651,0.947
26,EPLC-272H,1.03
27,NCI-H23,0.693

# Same assay, conditions: first compound 0.8 µM
row,Cell Line,relative viability
1,NCI-H2126,0.76
2,H3255,1.14
3,LOU-NH91,0.828
4,NCI-H2170,0.853
5,NCI-H3122,0.821
6,HOP-62,1.19
7,LU99A,0.603
8,BEN,1.36
9,HARA,0.931
10,HCC-78,0.452
11,NCI-H441,0.856
12,LCLC-97TM1,0.286
13,A-427,1.19
14,NCI-H460,0.685
15,NCI-H727,0.471
16,NCI-H1734,0.884
17,NCI-H2405,0.827
18,NCI-H1395,1.34
19,201T,1.01
20,NCI-H1915,1.14
21,HCC-827,1.03
22,LXF-289,1.08
23,NCI-H2347,1.12
24,NCI-H650,1.35
25,CAL-12T,1.44
26,NCI-H1651,1.17
27,EPLC-272H,0.951
28,NCI-H23,0.885

# Same assay, conditions: first compound 2.53 µM
row,Cell Line,relative viability
1,NCI-H2126,0.74
2,H3255,0.649
3,LOU-NH91,0.745
4,NCI-H2170,0.842
5,NCI-H3122,0.767
6,HOP-62,1.12
7,LU99A,0.402
8,BEN,1.01
9,HARA,0.876
10,HCC-78,0.253
11,NCI-H441,0.876
12,LCLC-97TM1,0.226
13,A-427,0.992
14,NCI-H460,0.506
15,NCI-H727,0.483
16,NCI-H1734,0.683
17,NCI-H2405,0.775
18,NCI-H1395,0.928
19,201T,1
20,NCI-H1915,1.01
21,HCC-827,0.958
22,LXF-289,1.03
23,NCI-H2347,0.971
24,NCI-H650,0.814
25,CAL-12T,1.1
26,NCI-H1651,0.944
27,EPLC-272H,0.809
28,NCI-H23,0.557
